{"source": "patent US9351998B2", "about": "“Methods of nourishing animals” (MariCal, Inc., priority 2008, dated 2016)", "key": {"chick CaSR": {"tested_on": "chick CaSR", "experiment": "Plasma calcium in chicks after single oral gavage of CaSR modulator", "type": "in vivo", "settings": "various doses, 2 week old and newly hatched chicks, various intervals of time", "from_the_text": "Male chicks (either newly hatched or 2 weeks of age) were gavaged with a single application of various doses of the specific CaSR modulator (MC 0100), a specific pharmacological modulator of CaSRs, to increase the apparent sensitivity of the CaSR to agonists such as calcium. An increase in the apparent sensitivity of the chick CaSR to extracellular calcium is expected to result in the “resetting” of the normal range of calcium within the chick to a lower level of plasma calcium since the functioning CaSR are all shifted leftward (more sensitive) on the dose response curve of CaSR for calcium."}, "chicken CaSR": {"tested_on": "chicken CaSR", "experiment": "CaSR dependent ERK 1/2 phosphorylation (Western blot) in HEK cells transfected with chicken CaSR", "type": "cell-based", "settings": "1 micromolar MC 0100", "protocol": "HEK cells transfected with the chicken CaSR were cultured under standard conditions (DMEM with 10% FCS). Confluent flasks were serum-starved overnight in DMEM supplemented with 0.2% BSA and pre-incubated for 60 min at 37° C. in the following medium: 125 mM NaCl, 4 mM KCl, 20 mM Hepes, 0.1% glucose, 0.8 mM NaH2PO4, 1 mM MgCl2, 0.1% BSA, 0.5 mM CaCl2, pH 7.45. The cells were then incubated in the same medium without BSA in the presence of different mineral chelates at different concentrations (see below) for 15 min at 37° C. At the end of the incubation treatment media was removed and cells were washed with PBS and than lysed in 250 microliter of M-PER lysis buffer (Pierce Chemical Company, Rockford, Ill.) containing 10 ul/ml of protease inhibitors (Pierce Chemical Company, Rockford, Ill.). Cell lysates were centrifuged for 10 min at 4° C. at 14,000×g. The protein content in the supernatants was analyzed using the BCA Protein Assay system from Pierce Chemical Company, Rockford, Ill. Equal amounts of protein (20 ug) were combined with 4× loading buffer and […] DTT, heated to 95° C., separated by SDS gel electrophoresis and electrotransferred to PVD membranes. The membranes were incubated in 1% BSA in TBS-T (TRIS-buffered saline containing Tween 20 at 0.1%) overnight. After 4 washes in TBS-T the membranes were incubated with primary antibody (anti phosphoERK at 1:400 dilution; this antibody recognizes the phosphorylated form of ERK 1/2) for 1.5 hours at room temperatures, washed 4 times and incubated with secondary antibody (anti mouse at 1:50,000 dilution). After 4 washes in TBS-T the membranes were developed using the ECL Western Blotting system.\nThe experiments described in FIGS. 34 A and B used the following metal chelate treatments: ZnProteinate, CuProteinate and MnProteinate (Balchem Corporation, New Hampton, N.Y.) at the following concentrations: 0.025% and 2.5%, or at a concentration of 0.025% with 1 micromolar MC 0100 (a calcimimetic); or various concentrations of bacitracin Zn."}, "[1]": {"experiment": "Nonstressed pen trial, serum parameters of broiler chickens given feed additives", "type": "in vivo, broiler chickens (Cobb)", "settings": "feed additive, MC0100 10 mg/kg or Mintrex Zn 250 mg/kg, Day 14", "from_the_text": "Male Cobb strain broiler chickens were reared in standard minipens and fed standard feed."}}, "data": [{"smiles": "COc1cccc([C@@H](C)NCCCc2ccccc2)c1", "note": "[MC0100]", "values": [{"measurement": "plasma calcium", "setting": "chick CaSR", "value": "dose dependent decrease"}, {"measurement": "effect on ERK1/2 phosphorylation response to 0.025% Cu Proteinate", "setting": "chicken CaSR", "value": "net reduction"}, {"measurement": "effect on ERK1/2 phosphorylation response to 0.025% Mn Proteinate", "setting": "chicken CaSR", "value": "strongly enhanced"}, {"measurement": "mean serum calcium concentration compared to Control", "setting": "[1]", "value": "significant reductions"}]}]}
